# Measurements taken from US11633443B2, “Algal extract comprising sulphated and non-sulphated polyanionic polysaccharides and uses thereof” (Amadeite, priority 2012, dated 2023).
# Entries after “also recorded” stand apart in the source; their conditions may differ. Where a name gives a salt, the structure may show the parent alone.
# Tested on: adult male Wistar rats
# Experiment: Behavioural despair test (BDT)
# Format: in vivo, rat
# Description: The anti-depressant effects of an algal extract according to the invention (AE), administered orally as a preventive treatment with 3 doses (10, 20 and 40 mg/kg/d) were evaluated in adult male Wistar rats in the behavioural despair test (BDT).
# The extract was daily administered as a semi-chronic treatment for 14 days. The effects of the extract were evaluated in the BDT on groups of 12 rats as compared with a control batch treated with the carrier (spring water) and a reference batch treated with Imipramine at the dose of 10 mg/kg/d.
# Sixty male Wistar rats (Charles River Laboratories, France) weighing from 200-225 g were used. Upon receiving them, the rats were marked and distributed in groups of 4 in polycarbonate cages of the F type (48×27×20 cm, U.A.R., 91-Epinay-Sur-Orge, France). The animals were housed in an air-conditioned animal housing facility, at a temperature of 22±2° C. and a relative humidity of 50±20%. The rats had standard feed 2016 (Harlan, Gannat, France) and drink ad libitum. They were subject to a reverse light-darkness cycle of 12 hours.
# After getting used to the conditions of the laboratory for one week, the rats were weighed and randomized according to their weight in 5 treatment groups (n=12/group).
# The experimental devices consisted in Plexiglas cylinders with a height of 50 cm and a diameter of 20 cm filled with water at 25° C. up to a height of 30 cm.
# After 13 days of daily treatment with the products to be tested, the rats were placed at D14 in the devices for a period of 15 minutes in order to evaluate the immobility time of each animal. Immediately after this first test, the rats received their 14th treatment.
# At D15, the rats received two treatments: the first, 5 hours before the test and the second 1 hour before the test. This procedure is usually used in the literature for testing the efficiency of a product against depression. The test was conducted under the same conditions as the day before for a period of 5 minutes.
# The recorded immobility duration during the first 5 minutes of both tests (at D14 and D15) reflects the capacity of the animal of resigning itself when it is confronted with a situation from which it cannot escape. This resignation behaviour is assimilated with depression.
# The product is an AE (algal extract) as a powder representing a freeze-dried and crushed concentrated fraction of a water-soluble algal extract prepared according to Example no. 1. The extract to be tested was dissolved in spring water and was administered to the rats orally at one of the 3 tested doses for 15 successive days with an administration volume of 5 ml/kg. The animals were weighed every two or three days in order to adapt their specific treatments to their weight. Their food and water intakes were noted every two or three days during the whole duration of the study.
# The animals of the Reference group receive daily 10 mg/kg/d of Imipramine hydrochloride (Sigma Aldrich) dissolved in spring water with an administration volume of 5 ml/kg.
# ANOVA in parametric mode was applied, followed, in the case of heterogeneity, by comparisons by means of the non-paired t-test for comparing the treated groups with the Carrier group and the Reference group.
# Paired ANOVA was used, followed, in the case of heterogeneity, by comparisons with the paired t-test for two by two comparisons of repeated measurements of BDT in each of the groups.
smiles,measurement,setting,value
"CN(C)CCCN1c2ccccc2CCc2ccccc21 [Imipramine, Imipramine hydrochloride]",immobility time at D15 compared with the Carrier (in words),10 mg/kg/d,significantly shorter
same,Immobility duration in the behavioural despair test at D15 (Average ± ESM),"10 mg/kg/d orally, 5 minutes test, n = 12",3.8 ± 1.0 s
same,Immobility duration in the behavioural despair pre-test at D14 (Average ± SME),"10 mg/kg/d orally, first 5 minutes, n = 12",16.3 ± 4.6 s
same,change of immobility time between D14 and D15 (in words),"10 mg/kg, hydrochloride",significantly decrease; also recorded: significantly reduced
same,"immobility duration at D14: difference between Carrier, Imipramine and AE groups","Imipramine 10 mg/kg, AE at the three tested doses (10, 20, 40 mg/kg)",no significant difference
